The subject of one series is HeLa cells. Put plainly: DEVDase (caspase 3/7) activity, Ac-DEVD-AFC substrate. The class given is cell-based, human. As to conditions: 100 nM, 16 h of treatment.
The test system of series [1] is A-549 lung carcinoma cells. Put plainly: cells. It counts as cell-based, human. The following applies: MTT assay, 24 h exposure, run in triplicate or greater; read-out: IC50, Lung A-549. The protocol:
(§1) The twelve synthesized compounds were evaluated in vitro using the following four human cancer cell lines: cervical adenocarcinoma (HeLa), lung carcinoma (A-549), breast adenocarcinoma (SK-BR-3) and colon adenocarcinoma (HT-29). Cells were treated for 24 h with various concentrations of the compounds, and their cytotoxic activity was then assessed using the [3-(4,5-dimethylthiazol-2-yl)-2,5-diphenyltetrazolium] bromide (MTT) assay.[29] Analysis of the dose-response data obtained yielded IC50 (50% inhibitory concentration) values, which are detailed in Table 1.
(§2) Normally growing cells were plated at 5 × 10^3 cells per well into 96-well plates and incubated for 24 h at 37 °C to allow attachment to the surface. Samples were then added dissolved in a DMSO–PBS vehicle (less than 1% in culture medium) at a range of concentrations. Drugs were run in triplicate or greater and control wells contained appropriate percentages of vehicle. After 24 h of exposure, the antitumor effect was measured using a solution of MTT, which is bioreduced by viable cells into formazan. The formed crystals were solubilized using DMSO and the amount of formazan was measured by reading the absorbance at 570 nm. The absorbance of wells containing only the MTT reagent (the plate blank) was subtracted from all wells.
(§3) The IC50 values were determined by dose response curve analysis and statistical analysis using GraphPad Prism software version 5.0a. […]
(§4) mM L-glutamine and antibiotics.
(§5) in a humidified atmosphere containing 5% CO2. For sub-culturing, cells were detached from
(§6) 5 mL of fresh medium preheated at 37 °C. Cellular density was determined in a Neubauer

For series [2], the system named is SK-BR-3 breast adenocarcinoma cells. Put plainly: cells. The class given is cell-based, human. The following applies: MTT assay, 24 h exposure, run in triplicate or greater; read-out: IC50, Breast SK-BR-3. The procedure: as §1, §2, §3, §4, §5, §6
For series [3], the system named is HT-29 colon adenocarcinoma cells. Nature of the series: cells. As to conditions: MTT assay, 24 h exposure, run in triplicate or greater; read-out: IC50, Colon HT-29. The class given is cell-based, human. The protocol: as §1, §2, §3, §4, §5, §6
The test system of series [4] is HeLa cervical adenocarcinoma cells. Put plainly: cells. The class given is cell-based, human. As to conditions: MTT assay, 24 h exposure, run in triplicate or greater; read-out: IC50, Cervix HeLa. The protocol: as §1, §2, §3, §4, §5, §6
A further series deals with red blood cells. The following applies: human RBCs, PBS, 1 h at 37 °C, concentrations up to 100 μM, absorbance 560 nm, n=3.

These results are taken from publication PMC5666514 (Chemical Science, 2015).

*1 amine or outer side, *2 acyl side, *3 side chain or, on linkers, in order; H or OH if unused. Where a SMILES comes first, the peptide text is derived from it. [ ]: non-standard residue; d: D form. The star is where a group is joined. Quinoxaline2carbonyl = O=C(c1cnc2ccccc2n1)*; Ethylenediamine = C(CN[*:2])N[*:1]; Abu = CC[C@H](N)C(=O)O

Procedure for HeLa cells: Data are mean ± s.e.m. […] Data are given as mean ± s.e.m. […] Non-treated cells were used as control. (F, right panel) Densitometric quantification of cleaved caspase 3 and cleaved PARP levels (relative to control, non-treated cells). β-actin was used for loading normalization. Data are mean ± s.e.m.
Thus, we used the fluorogenic substrate Ac–DEVD–AFC as an indicator of the activation of effector caspases, which are the executioners of apoptosis.
(E) HeLa cells were treated as in (D) and apoptosis was assessed by DEVDase activity (right panel) and western blot of PARP1 and caspase-3 (left panel). β-actin was used for loading normalization. Data are mean ± s.e.m.
DEVDase activity was determined in 30 g of RIPA total protein cell lysate (without protease
inhibitors). Cleavage of the fluorogenic substrated Ac-DEVD-AFC. Caspase 3 and PARP
cleavage were determined in 50 g RIPA total protein cell lysate of control and treated cells.

As for `CO/C1=C\C(C)=C\[C@@H](C)[C@@H](O)[C@@H](C)C/C(C)=C/C=C/[C@H](OC)[C@@H]([C@@H](C)[C@@H](O)[C@H](C)[C@@]2(O)C[C@@H](O)[C@H](C)[C@@H](C(C)C)O2)OC1=O` [bafilomycin A1], the “apoptosis induction (DEVDase activity, PARP1 and caspase-3 western blot)” value in the series on HeLa cells is “induces apoptosis”.

In the case of `CC[C@H](NC(=O)[C@H](CO)NC(=O)c1cnc2ccccc2n1)C(=O)N[C@H](C(=O)N[C@H](C(=O)N1CCC[C@@H]1C(=O)NCC(=O)N[C@H](C(=O)N[C@H](C(=O)N[C@@H](CC)C(=O)NCCNC(=O)c1cnc2ccccc2n1)C(C)C)C(C)C)C(C)C)C(C)C` [RZ2] (Quinoxaline2carbonyl-S[Abu]VV[dP]GVV[Abu]-{Ethylenediamine-Quinoxaline2carbonyl}), the IC50 in series [1] was found to be 11.9 µM; in series [2] it was 5.4 µM; in series [3] it was 6.8 µM; in series [4], 2700 nM. The “hemolysis (hemoglobin release from red blood cells)” value in the series with red blood cells was “not hemolytic”.
